Measurements taken from EP4467141A1, “PYRAZOLO-QUINOLINES AS SELECTIVE INHIBITORS OF GENOTOXIC STRESS-INDUCED IKK/NF- KB PATHWAYS FOR CANCER THERAPY” (Max-Delbrück-Centrum für Molekulare Medizin in der …, priority 2023, dated 2024).

Assays:
CSNK1G3 (CK1 gamma 3) = target: T1, CSNK1G3 (CK1 gamma 3) (Homo sapiens, UniProt Q9Y6M4); assay: Kinase panel study; type: biochemical; conditions: read-out: Percentage of inhibition; for inhibition at 1 µM: 1000nM; for inhibition at 10 µM: 10000nM
T1 construct: purchased Thermo Fisher Scientific
T1 sequence (Q9Y6M4 whole entry): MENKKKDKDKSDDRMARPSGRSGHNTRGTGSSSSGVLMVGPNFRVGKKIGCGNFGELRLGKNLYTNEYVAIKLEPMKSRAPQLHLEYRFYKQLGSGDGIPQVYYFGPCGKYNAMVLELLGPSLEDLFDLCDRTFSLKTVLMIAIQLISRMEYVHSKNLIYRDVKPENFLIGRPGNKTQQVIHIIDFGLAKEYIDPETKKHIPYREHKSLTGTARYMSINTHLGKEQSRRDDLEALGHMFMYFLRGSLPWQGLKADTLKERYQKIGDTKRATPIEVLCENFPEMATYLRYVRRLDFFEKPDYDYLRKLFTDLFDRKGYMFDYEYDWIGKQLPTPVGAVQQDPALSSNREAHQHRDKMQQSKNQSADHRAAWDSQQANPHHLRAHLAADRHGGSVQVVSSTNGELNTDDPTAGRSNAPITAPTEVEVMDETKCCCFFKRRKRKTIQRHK
In short: (§1)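 ZLyte/Adapta biochemical kinase assays, standard operating procedures; % inhibition at 1 µM or 10 µM test compound; IC50 determined in panel.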

DYRK4 = target: T2, DYRK4 (Homo sapiens, UniProt Q9NR20); assay: Kinase panel study; type: biochemical; conditions: read-out: Percentage of inhibition; for inhibition at 1 µM: 1000nM; for inhibition at 10 µM: 10000nM
T2 construct: purchased Thermo Fisher Scientific
T2 sequence (Q9NR20 1-520): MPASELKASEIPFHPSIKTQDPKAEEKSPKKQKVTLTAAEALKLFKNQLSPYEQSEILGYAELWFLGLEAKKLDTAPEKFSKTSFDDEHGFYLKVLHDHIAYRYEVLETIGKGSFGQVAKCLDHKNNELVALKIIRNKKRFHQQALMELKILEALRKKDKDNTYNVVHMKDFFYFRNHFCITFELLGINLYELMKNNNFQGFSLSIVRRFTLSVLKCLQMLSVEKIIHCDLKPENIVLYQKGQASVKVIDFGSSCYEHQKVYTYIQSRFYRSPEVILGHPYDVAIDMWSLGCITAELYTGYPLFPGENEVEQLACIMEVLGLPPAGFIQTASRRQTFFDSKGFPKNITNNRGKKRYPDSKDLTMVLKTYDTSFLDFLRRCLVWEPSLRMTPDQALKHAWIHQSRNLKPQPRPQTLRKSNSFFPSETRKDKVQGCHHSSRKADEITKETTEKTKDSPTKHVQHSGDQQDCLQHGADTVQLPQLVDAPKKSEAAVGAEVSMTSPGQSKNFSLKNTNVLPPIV
In short: as §1

EPHB3 = target: T3, EPHB3 (Homo sapiens, UniProt P54753); assay: Kinase panel study; type: biochemical; conditions: read-out: Percentage of inhibition; for inhibition at 1 µM: 1000nM; for inhibition at 10 µM: 10000nM
T3 construct: purchased Thermo Fisher Scientific
T3 sequence (P54753 34-998): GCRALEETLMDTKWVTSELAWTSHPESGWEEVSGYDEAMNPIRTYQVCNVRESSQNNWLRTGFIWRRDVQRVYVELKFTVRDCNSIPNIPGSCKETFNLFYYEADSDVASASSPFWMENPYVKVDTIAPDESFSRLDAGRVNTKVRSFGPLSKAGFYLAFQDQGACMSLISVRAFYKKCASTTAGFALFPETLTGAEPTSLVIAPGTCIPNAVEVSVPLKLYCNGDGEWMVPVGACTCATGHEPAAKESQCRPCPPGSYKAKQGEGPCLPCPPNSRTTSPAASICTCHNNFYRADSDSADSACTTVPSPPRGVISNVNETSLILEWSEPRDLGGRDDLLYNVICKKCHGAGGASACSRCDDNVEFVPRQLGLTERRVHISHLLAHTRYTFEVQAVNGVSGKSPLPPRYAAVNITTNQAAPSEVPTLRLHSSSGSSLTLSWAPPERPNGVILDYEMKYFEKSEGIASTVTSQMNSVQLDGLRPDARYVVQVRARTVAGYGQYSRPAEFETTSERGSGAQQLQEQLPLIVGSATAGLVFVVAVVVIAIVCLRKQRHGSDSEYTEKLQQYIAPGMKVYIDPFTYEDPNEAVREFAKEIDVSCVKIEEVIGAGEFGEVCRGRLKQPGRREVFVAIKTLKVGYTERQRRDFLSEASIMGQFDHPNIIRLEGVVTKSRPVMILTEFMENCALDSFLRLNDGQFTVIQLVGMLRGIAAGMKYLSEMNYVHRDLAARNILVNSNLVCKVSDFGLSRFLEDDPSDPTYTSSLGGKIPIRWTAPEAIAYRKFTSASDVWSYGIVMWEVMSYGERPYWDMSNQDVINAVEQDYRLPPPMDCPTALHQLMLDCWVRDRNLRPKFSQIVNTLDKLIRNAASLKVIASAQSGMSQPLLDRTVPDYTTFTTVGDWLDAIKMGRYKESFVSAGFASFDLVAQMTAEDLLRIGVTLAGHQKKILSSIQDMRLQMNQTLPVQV
In short: as §1

FGFR2 N549H = target: T4, FGFR2 N549H (Homo sapiens, UniProt P21802, N549H); assay: Kinase panel study; type: biochemical; conditions: read-out: Percentage of inhibition; for inhibition at 1 µM: 1000nM; for inhibition at 10 µM: 10000nM
T4 construct: purchased Thermo Fisher Scientific
T4 sequence (P21802 22-821 N549H): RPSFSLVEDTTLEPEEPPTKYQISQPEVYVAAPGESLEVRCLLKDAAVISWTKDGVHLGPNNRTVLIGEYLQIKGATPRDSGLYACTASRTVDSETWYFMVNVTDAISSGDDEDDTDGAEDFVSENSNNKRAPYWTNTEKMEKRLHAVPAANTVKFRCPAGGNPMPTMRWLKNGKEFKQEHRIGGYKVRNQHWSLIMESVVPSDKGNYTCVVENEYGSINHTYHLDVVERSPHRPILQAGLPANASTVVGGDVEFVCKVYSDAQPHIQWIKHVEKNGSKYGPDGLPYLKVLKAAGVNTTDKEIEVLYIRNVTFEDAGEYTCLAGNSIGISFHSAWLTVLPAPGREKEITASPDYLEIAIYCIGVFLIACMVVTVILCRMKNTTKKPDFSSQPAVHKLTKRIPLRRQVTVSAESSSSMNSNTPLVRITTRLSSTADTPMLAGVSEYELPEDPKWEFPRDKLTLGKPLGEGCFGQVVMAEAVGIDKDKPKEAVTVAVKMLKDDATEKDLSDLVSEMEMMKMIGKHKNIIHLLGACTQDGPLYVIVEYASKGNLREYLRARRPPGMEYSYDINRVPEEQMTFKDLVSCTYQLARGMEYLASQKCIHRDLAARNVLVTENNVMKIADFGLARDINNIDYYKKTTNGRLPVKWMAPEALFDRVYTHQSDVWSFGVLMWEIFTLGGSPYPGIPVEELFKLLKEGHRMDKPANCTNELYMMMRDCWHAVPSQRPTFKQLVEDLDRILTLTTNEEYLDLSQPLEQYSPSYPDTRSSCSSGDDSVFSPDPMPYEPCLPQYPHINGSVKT
In short: as §1

PAK1 = target: T5, PAK1 (Homo sapiens, UniProt Q13153); assay: Kinase panel study; type: biochemical; conditions: read-out: Percentage of inhibition; for inhibition at 1 µM: 1000nM; for inhibition at 10 µM: 10000nM
T5 construct: purchased Thermo Fisher Scientific
T5 sequence (Q13153 whole entry): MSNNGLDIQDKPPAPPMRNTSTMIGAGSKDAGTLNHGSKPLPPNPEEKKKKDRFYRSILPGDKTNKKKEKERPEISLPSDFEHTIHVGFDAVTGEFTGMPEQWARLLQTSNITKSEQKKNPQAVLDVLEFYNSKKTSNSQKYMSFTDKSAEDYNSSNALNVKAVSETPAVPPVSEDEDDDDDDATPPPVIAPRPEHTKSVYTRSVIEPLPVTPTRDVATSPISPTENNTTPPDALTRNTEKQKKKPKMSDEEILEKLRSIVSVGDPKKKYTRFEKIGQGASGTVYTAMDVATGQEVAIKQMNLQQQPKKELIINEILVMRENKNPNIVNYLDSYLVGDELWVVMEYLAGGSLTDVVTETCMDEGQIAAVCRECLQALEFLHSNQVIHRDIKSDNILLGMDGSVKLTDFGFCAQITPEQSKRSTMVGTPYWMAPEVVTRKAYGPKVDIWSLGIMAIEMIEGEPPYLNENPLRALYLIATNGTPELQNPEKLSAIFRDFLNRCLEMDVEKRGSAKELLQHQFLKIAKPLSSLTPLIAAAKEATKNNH
In short: as §1

PRKACA (PKA) = target: T6, PRKACA (PKA) (Homo sapiens, UniProt P17612); assay: Kinase panel study; type: biochemical; conditions: read-out: Percentage of inhibition; for inhibition at 1 µM: 1000nM; for inhibition at 10 µM: 10000nM
T6 construct: purchased Thermo Fisher Scientific
In short: as §1

RET V804E = target: T7, RET V804E (Homo sapiens, UniProt P07949, V804E); assay: Kinase panel study; type: biochemical; conditions: read-out: Percentage of inhibition; for inhibition at 1 µM: 1000nM; for inhibition at 10 µM: 10000nM
T7 construct: purchased Thermo Fisher Scientific
T7 sequence (P07949 29-1114 V804E): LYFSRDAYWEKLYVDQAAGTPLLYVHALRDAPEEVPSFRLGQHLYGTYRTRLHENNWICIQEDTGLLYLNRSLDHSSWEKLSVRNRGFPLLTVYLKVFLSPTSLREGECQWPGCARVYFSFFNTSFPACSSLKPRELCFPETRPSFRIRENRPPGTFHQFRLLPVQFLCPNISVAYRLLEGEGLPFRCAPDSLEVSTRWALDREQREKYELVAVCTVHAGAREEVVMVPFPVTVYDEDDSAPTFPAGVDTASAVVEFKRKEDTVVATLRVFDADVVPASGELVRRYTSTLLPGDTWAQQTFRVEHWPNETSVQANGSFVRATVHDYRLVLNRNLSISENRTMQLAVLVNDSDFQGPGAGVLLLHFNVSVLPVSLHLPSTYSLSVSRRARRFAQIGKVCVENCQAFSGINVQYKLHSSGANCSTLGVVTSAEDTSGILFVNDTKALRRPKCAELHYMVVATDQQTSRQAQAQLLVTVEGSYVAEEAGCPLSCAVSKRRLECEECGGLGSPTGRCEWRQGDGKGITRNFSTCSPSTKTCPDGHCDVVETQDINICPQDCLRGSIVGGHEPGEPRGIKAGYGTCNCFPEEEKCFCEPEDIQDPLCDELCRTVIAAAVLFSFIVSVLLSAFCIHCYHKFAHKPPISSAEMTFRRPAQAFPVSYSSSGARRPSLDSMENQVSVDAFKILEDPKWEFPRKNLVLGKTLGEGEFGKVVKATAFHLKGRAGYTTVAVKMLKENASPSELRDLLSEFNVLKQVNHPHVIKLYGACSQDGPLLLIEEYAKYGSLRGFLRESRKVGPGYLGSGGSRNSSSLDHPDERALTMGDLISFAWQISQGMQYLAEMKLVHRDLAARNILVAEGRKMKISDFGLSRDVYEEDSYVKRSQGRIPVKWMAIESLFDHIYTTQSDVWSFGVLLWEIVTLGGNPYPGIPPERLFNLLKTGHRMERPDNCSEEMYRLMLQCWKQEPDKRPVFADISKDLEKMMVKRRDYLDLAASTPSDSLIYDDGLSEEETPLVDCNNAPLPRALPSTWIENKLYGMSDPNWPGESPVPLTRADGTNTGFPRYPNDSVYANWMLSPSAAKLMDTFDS
In short: as §1

TEK (Tie2) = target: T8, TEK (Tie2) (Homo sapiens, UniProt Q02763); assay: Kinase panel study; type: biochemical; conditions: read-out: Percentage of inhibition; for inhibition at 1 µM: 1000nM; for inhibition at 10 µM: 10000nM
T8 construct: purchased Thermo Fisher Scientific
T8 sequence (Q02763 23-1124): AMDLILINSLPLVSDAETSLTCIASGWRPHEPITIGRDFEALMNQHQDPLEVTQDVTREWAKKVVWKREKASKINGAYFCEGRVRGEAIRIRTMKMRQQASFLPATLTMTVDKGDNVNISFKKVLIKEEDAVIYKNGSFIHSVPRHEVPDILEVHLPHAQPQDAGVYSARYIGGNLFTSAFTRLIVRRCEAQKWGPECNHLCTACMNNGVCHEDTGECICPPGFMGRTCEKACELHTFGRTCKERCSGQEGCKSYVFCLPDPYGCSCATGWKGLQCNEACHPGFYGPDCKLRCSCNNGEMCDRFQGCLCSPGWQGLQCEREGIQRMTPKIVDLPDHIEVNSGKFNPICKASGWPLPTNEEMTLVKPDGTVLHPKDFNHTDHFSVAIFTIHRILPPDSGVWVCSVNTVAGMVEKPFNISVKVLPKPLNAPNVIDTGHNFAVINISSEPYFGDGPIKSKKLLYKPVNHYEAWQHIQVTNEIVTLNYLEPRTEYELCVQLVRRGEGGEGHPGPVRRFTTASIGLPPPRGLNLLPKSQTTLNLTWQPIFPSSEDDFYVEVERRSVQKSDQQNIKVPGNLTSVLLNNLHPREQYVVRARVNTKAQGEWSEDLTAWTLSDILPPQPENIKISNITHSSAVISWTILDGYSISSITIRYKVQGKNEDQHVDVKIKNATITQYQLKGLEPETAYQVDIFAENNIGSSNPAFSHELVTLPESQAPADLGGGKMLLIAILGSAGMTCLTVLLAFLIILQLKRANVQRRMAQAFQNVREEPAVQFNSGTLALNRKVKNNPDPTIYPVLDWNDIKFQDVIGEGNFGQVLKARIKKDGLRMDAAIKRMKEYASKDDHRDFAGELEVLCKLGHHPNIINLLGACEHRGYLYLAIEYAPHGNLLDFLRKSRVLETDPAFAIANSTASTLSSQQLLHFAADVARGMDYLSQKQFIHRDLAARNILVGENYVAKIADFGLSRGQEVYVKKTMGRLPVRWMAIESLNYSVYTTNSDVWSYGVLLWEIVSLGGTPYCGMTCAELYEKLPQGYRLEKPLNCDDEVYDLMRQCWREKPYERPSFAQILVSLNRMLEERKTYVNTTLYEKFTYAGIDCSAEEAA
In short: as §1

[1] = test system: NF-κB subunit p65 phosphorylation (S536); assay: Western blot of p65 phosphorylation (S536) after DNA damage (irradiation or etoposide) in U2-OS cells; type: cell-based; conditions: 10 µM plus etoposide 50 µM, 24 hours

SMILES	inhibition at 1 µM (CSNK1G3 (CK1 gamma 3)) [%]	inhibition at 10 µM (CSNK1G3 (CK1 gamma 3)) [%]	inhibition at 1 µM (DYRK4) [%]	inhibition at 10 µM (DYRK4) [%]	inhibition at 1 µM (EPHB3) [%]	inhibition at 10 µM (EPHB3) [%]	inhibition at 1 µM (FGFR2 N549H) [%]	inhibition at 10 µM (FGFR2 N549H) [%]	inhibition at 1 µM (PAK1) [%]	inhibition at 10 µM (PAK1) [%]	inhibition at 1 µM (PRKACA (PKA)) [%]	inhibition at 10 µM (PRKACA (PKA)) [%]	inhibition at 1 µM (RET V804E) [%]	inhibition at 10 µM (RET V804E) [%]	inhibition at 1 µM (TEK (Tie2)) [%]	inhibition at 10 µM (TEK (Tie2)) [%]	etoposide-stimulated p65 phosphorylation [1]
COc1ccc2cc3c(N)nn(C(=O)c4cccc(N(C)C)c4)c3nc2c1 [MW05, (3-Amino-7-methoxypyrazolo[3,4-b]quinolin-1-yl)-[3-(dimethylamino)phenyl]methanone]	1	9	4	4	6	5	-4	-22	16	2	12	-15	1	-7	-2	12	abrogated
COc1ccc2c(c1OC)c(=O)n1c3ccc(O)cc3c3ccnc2c31 [MW01, 5-Hydroxy-10,11-dimethoxy-9H-benzo[c]indolo[3,2,1-ij][1,5]naphthyridin-9-one]	4	12	-2	0	1	11	0	13	10	22	6	17	5	17	19	5	abrogated
